Consider five compounds from patent US20210369677A1, “SMALL MOLECULE ACTIVATORS OF POLYCYSTIN-2 (PKD2) AND USES THEREOF” (Northwestern University, priority 2020, published 2021).

“Also recorded” adds a separate entry of the source.

Assay [1] addresses T1, PKD2 (Homo sapiens, UniProt Q13563).
T1 sequence (Q13563 1-968): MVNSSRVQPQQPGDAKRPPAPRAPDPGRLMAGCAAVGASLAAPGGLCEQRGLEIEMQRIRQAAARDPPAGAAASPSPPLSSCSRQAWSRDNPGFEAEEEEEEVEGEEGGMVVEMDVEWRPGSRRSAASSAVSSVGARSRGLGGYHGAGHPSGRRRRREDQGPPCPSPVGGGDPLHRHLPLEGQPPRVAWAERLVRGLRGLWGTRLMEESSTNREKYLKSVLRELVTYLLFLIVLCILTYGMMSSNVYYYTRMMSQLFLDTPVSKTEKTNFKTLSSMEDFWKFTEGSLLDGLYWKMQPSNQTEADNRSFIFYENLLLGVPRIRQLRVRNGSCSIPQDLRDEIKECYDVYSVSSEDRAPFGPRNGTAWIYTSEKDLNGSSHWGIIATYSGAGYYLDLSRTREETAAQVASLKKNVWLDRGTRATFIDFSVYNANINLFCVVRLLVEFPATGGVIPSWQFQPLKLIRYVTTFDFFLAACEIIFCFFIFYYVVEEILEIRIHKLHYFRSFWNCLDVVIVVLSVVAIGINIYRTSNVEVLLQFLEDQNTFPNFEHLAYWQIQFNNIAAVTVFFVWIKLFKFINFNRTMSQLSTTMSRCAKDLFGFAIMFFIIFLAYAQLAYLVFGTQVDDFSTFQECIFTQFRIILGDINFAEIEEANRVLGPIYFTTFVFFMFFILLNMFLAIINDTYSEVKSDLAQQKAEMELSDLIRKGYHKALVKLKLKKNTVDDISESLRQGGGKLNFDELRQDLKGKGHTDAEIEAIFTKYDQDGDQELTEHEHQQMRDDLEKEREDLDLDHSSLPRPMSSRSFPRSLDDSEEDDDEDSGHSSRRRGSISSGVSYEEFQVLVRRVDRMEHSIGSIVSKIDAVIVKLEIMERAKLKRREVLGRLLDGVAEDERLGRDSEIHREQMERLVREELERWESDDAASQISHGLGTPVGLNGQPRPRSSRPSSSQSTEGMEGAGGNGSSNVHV
Briefly: P. pastoris PKD2 Ca2+-dependent yeast growth assay (Stage 1). In kind it is cell-based. Conditions: P. pastoris strain Y5634; read-out: EC50, yeast growth dependent on stimulation of PKD2 cation transport. An excerpt: (§1) FIG. 31. […] Top, the screening of each stage. […] Bottom, cilia Ca^2+ responses from cells with PKD2 present and knocked out using CRISPR=Cas9 (N=17 cells each). D, E) Stage 3 (Cilia Electrophysiology): image of a patched cilia from collecting ducts and corresponding PKD2-dependent current activated by NS1643.
(§2) Our screening strategy included three stages. (See FIG. 31). In Stage 1 of our screening assay, we utilized cyst cells in a P. pastoris (strain YS634) PKD2 Ca^2+-dependent yeast growth assay. P. pastoris growth is dependent on induction and stimulation of PKD2 ion transport by test compounds including NS1643, calmidazolium, and W-13. In Stage 2, we measured PKD2 activation by the test compounds using increased ciliary Ca2+ fluorescence and membrane potential from human kidney collecting duct cells in which PKD2 had been knocked out by CRISPR-Cas9. In Stage 3, we assessed activation of polystin-2 dependent currents by the test compounds via imaging of patched cilia from collecting ducts and measuring change in current versus voltage. […] (See FIG. 32).

The target in assay [2] is T1, PKD2. The assay can be described thus: Cilia electrophysiology of patched cilia from collecting ducts (Stage 3). Type of assay: cell-based.
Source text: as §1, §2

In assay [3] the target is T1, PKD2. The assay can be described thus: PKD2 conductance assay. In kind it is cell-based. An excerpt:
FIG. 35. Conductance of PKD2 in the presence of test compounds CAS Number 57265-65-3 (calmidazolium (CMZ)), CAS Number 617-27-0 (W-13), and CAS Number 448895-37-2 (NS1643)
We also tested the additional compound CAS Number 57265-65-3 (calmidazolium (CMZ)), the compound CAS Number 617-27-0 (W-13), and NS1643 in a PKD2 conductance assay.

Assay [4] addresses T1, PKD2. Briefly: Three stage testing strategy for PKD2 activators. Type of assay: cell-based. To be noted: three screening stages.
Source text: as §1
The polycystin pharmacophore remains outstanding because these channels localize to the primary cilium—an antenna-like organelle that requires innovative tools to study. To address this knowledge gap, our laboratory has established a series of cilia-specific channel activity reporters (voltage and calcium reporters) and model systems (poly cystin-dependent yeast growth) which will be used in a three-stage drug screen to characterize the pharmacology of polycystins. We screened a commercially available chemical library containing 384 compounds for activity against wild type polycystins, and identified three channel activators. […]
Our screening strategy included three stages. […] In Stage 2, we measured PKD2 activation by the test compounds using increased ciliary Ca2+ fluorescence and membrane potential from human kidney collecting duct cells in which PKD2 had been knocked out by CRISPR-Cas9. In Stage 3, we assessed activation of polystin-2 dependent currents by the test compounds via imaging of patched cilia from collecting ducts and measuring change in current versus voltage. […]

The target in assay [5] is T1, PKD2. Briefly: Cilia Ca2+ fluorescence (smo-GCaMP3), Stage 2. Type of assay: cell-based. Also on record: cilia Ca^2+ responses from cells with PKD2 present and knocked out using CRISPR=Cas9; endogenous in cells; host or cells: human kidney collecting duct cells expressing the smo-GCaMP3 cilia reporter. Conditions: smo-GCaMP3, human kidney collecting duct cells; read-out: EC50, increased ciliary Ca2+ fluorescence.
Source text: as §1, §2

Assay [6] concerns the target T2, human polycystin-2 CTD EF hand (I704-P797) (Homo sapiens, UniProt Q13563).
T2 construct: The C-terminal fragment of the human polycystin-2 (I704-P797) was cloned into the PET19b vector; 10xHis (N); made in house; host or cells: E. coli BL21 (DE3)
T2 sequence (Q13563 704-797): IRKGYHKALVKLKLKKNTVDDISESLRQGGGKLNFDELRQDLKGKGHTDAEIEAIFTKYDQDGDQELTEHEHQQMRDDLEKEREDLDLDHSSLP
Briefly: Isothermal titration calorimetry of divalent ions into the CTD of polycystin-2. In kind it is binding. The protocol: CTD protein expression, purification, and isothermal titration calorimetry. The C-terminal fragment of the human polycystin-2 (I704-P797) was cloned into the PET19b vector and transformed into BL21 (DE3) competent cells (New England Biolabs) for bacterial expression. The translated peptide has a 10×His tag on its N-terminus. The alanine mutants of the individual calcium-coordinating residues were created and transformed as well. Cells were grown in 2XYT broth in a 37° C. shaking incubator until OD600 reaches ˜0.6, and were induced by 0.4 mM isopropyl 1-thio-β-D-galactopyranoside and grown for another 4 hours. Cells were harvested and resuspended in Buffer A (500 mM NaCl, 20 mM Tris/HCl, pH 7.4), 5% glycerol, 0.25 mM EDTA pH 8.0, 1 mM PMSF (RPI), 25 μg/ml of lysozyme and DNase I (GoldBio). The suspension was then lysed by sonication and clarified by centrifugation (30,000×g for 0.5 h). Filtered supernatant was loaded into a HisPur cobalt Superflow agarose column (ThermoScientific). The column was washed with 10 column volume (CV) of buffer A, 5 CV of buffer A+5 mM imidazole, and finally eluted with 3 CV of buffer A+100 mM imidazole. The eluate was desalted by dialysis in 150 mM NaCl, 20 mM Tris/HCl, 20 mM imidazole, pH 7.4. SDS-PAGE gel confirmed the expression, solubility, and purity of the peptide. All of our solutions were formulated with ultrapure water (Milli-Q® IQ 7005 water purification system), that has less than 0.29 ng/L calcium ions present. The binding affinity is recorded based on the heat difference between the sample cell and reference cell measured by MicroCal iTC200. […] The cells were insulated by an adiabatic jacket held at 25° C. The heat of dilution of Ca^2+ was not subtracted from data sets, as the signal was prohibitively small for several of the mutant channels. The exothermic energy of the bimolecular interaction between Ca^2+ and peptide during each injection was analyzed by integrating the change in heat to generate the binding isotherm. […]
A general note: Isothermal titration calorimetry measures the heat released or taken up as one component is titrated into another.

The target in assay [7] is T3, polycystin-2 (Homo sapiens, UniProt Q13563).
T3 construct: expressed in transfected cells
T3 sequence (Q13563 1-968): T1 sequence (Q13563 1-968)
Type of assay: cell-based. To be noted: 10 μM, voltage ramps. The source says:
Generation of HEK PKD2^Null cells line and the stable expression PKD2 variants. To generate the HEK PKD2^Null cell lines, we used a CRISPR/Cas9 gene editing kit available from Addgene (kit 1000000055). HEK 293 cells were electro-transfected with sgRNAs (caccg[…] and aaac[…]c) with the All-in-one Cas9 plasmid. […] Cells generated from single cell clones were selected after 4 weeks of expansion in a 96-wells plate. […] To generate the WT and variant PKD2 GFP or mCherry C-terminally tagged variant cell lines, the hPKD gene was subcloned into lentiviral pLVX-mcherry-N1 (Clontech) or pLVX-GFP-N1 (Clontech) vector using the Gibson assembly method. A linker encoding for six glycine residues was added between the PKD2 gene and the C-terminal tags, and missense variants were generated using standard, site-directed mutagenesis. The third-generation lentiviral packaging plasmids used for stable expression contained: pMDLg/pRRE (Addgene), […] pRSV-Rev (Addgene), and envelope expressing plasmid pMD2.G (Addgene). LentiX-293T cells (Takara) were transfected with polyethylineimine (Polysciences) at a 4:1:1:1 ratio of the transgene and viral packaging constructs. Supernatants were collected 48 and 72 hours post transfection and filtered through a 0.45 μm syringe filter. Lentiviral supernatant was concentrated 100 times using 1 volume of PEG-it (System Biosciences) virus precipitation solution and 4 volume of lentivirus-containing supernatant. The PEG-it and supernatant mixture were kept at 4 degrees for 24 hours and centrifuged at 1500 rpm for 30 minutes. The pellet containing lentivirus was resuspended with 1/100th volume of PBS of the original supernatant volume. HEK cells were infected with the lentivirus supernatant; PKD2-GFP or PKD2-mCherry expression was selected using culture media containing puromycin (2 μg/ml) for 30 to 90 days. Cells were then fluorescence-activated cell sorted (BD FacsMelody) at 5000 to 10,000 counts per minute to enrich for the transgene expression. Stable cell lines were cultured in Dulbecco's modified essential medium (DMEM) supplemented with 10% fetal bovine serum (FBS) and 100 units/ml penicillin, 100 units/ml streptomycin and 1 μg/ml puromycin selection antibiotic.
(§3) Electrophysiology. Ciliary ion currents were recorded using borosilicate glass electrodes polished to resistances of 14-22 MΩ using the cilium patch method previously described^32. Whole cell electrodes used to measure poly cystin-2L1 currents were fire polished to 1.5-4 MΩ resistances. Unless otherwise stated, whole cilia ionic currents were recorded in symmetrical [Na^+]. The pipette standard internal solution contained (in mM): 90 NaMES, 10 NaCl, 10 HEPES, 10 Na4-BAPTA (Glycine, N, N′-[1,2-ethanediylbis(oxy-2,1-phenylene)]bis[N-(carboxymethyl)]-,tetrasodium); pH was adjusted to 7.3 using NaOH. Standard bath solution contained 140 NaCl, 10 HEPES, 1.8 CaCl2); pH 7.4. All solutions were osmotically balanced to 295 (±6) mOsm with mannitol. Extracellular solutions containing TCEP and GSH were used within six hours of formulation. Data were collected using an Axopatch 200B patch clamp amplifier, Digidata 1440A, and pClamp 10 software. Whole-cilium and excised patch currents were digitized at 25 kHz and low-pass filtered at 10 kHz. In the whole cilium configuration, the holding potential was −60 mV and then depolarized using a 400 ms voltage ramp from −100 mV to 100 mV. The whole cell recordings of polycystin-2L1 currents were either activated by the same ramp protocol or by 100 ms depolarizations to 100 mV from a −100 mV holding potential.

The test system of assay [8] is polycystin-2L1. Type of assay: cell-based. To be noted: 10 μM, plasma membrane of HEK cells. The protocol:
as §3, with “potential. External conditions were controlled using a Warner Perfusion Fast-Step (SF-77B) system in which the patched cilia and electrode were held in the perfusate stream. Data were analyzed by Igor Pro 7.00 (Wavemetrics, Lake Oswego, Oreg.). The polycystin-2 open probability and the polycystin-2L1 tail current-voltage relationships were fit to a Boltzmann function, f(x)=1/(1+exp[V−V1/2]/k) to estimate voltage of half-maximal activation of current (V1/2).” for “potential.”

In general, EC50 refers to the concentration that produces a half-maximal response.

In the case of `O=C(Nc1cc(C(F)(F)F)ccc1O)Nc1cc(C(F)(F)F)ccc1O` [NS1643, 1,3-bis[2-hydroxy-5-(trifluoromethyl)phenyl]urea], the 50% effective concentration (EC50) in assay [1] worked out at 1100 nM; in assay [5], 2300 nM. In addition, the PKD2-dependent current entry in assay [2] is “activated”. In assay [3], the PKD2 conductance result was “increased PKD2 conductance”. Also, the “Identification as PKD2 activator” value in assay [4] is “identified as an activator of PKD2 activity; also recorded: exemplary PKD2 activator”.
In the case of `[Mg+2]` [Mg^2+], the “Affinity of other divalent ions for polycystin-2 EF hand” value in assay [6] is on record as “did not have affinity”.
Regarding `[La]` [lanthanum], the “Block of ciliary WT polycystin-2 currents by trivalent ions” value in assay [7] was “blocked”. The “Block of polycystin-2L1 currents by trivalent ions” value in assay [8] is reported as “blocked”.
In the case of `NCCCCCCNS(=O)(=O)c1cccc2c(Cl)cccc12` [W-13, N-(6-Aminohexyl)-5-chloro-1-naphthalenesulfonamide], the PKD2 conductance entry in assay [3] is on record as “increased PKD2 conductance”.
Take `[Zn+2]` [Zn^2+]: in assay [6], the “Affinity of other divalent ions for polycystin-2 EF hand” value is reported as “did not have affinity”.
